Measured values published in publication PMC13586173, “Synthetic cannabinoid receptor agonists inhibit the cardiac voltage-gated potassium channel hERG” (Acta Pharmacologica Sinica, 2026).

Assays:
[1] = cited from earlier work
[2] = target: T1, hERG WT (Homo sapiens, UniProt Q12809); assay: Manual patch-clamp (MPC) on hERG wild type; format: cell-based
T1 construct: expressed in transfected cells
Method: Manual patch-clamp (MPC) recordings were performed 24–48 h post-transfection. Patch pipettes were pulled from borosilicate glass and had resistances of 4–7 MΩ when filled with intracellular solution. Coverslips with CHO-K1 cells were placed in a recording chamber and continuously perfused at room temperature (22–24 °C) with extracellular solution using a gravity-fed perfusion system. The intracellular and extracellular solutions used for MPC were identical to those used for APC electrophysiology (see above). Extracellular solution without DMSO was used as a vehicle. Compounds were diluted from the stock solution as a series of dilutions in extracellular solution (i.e., no compensation for different concentrations of DMSO in recording solutions). Compounds were applied to the recorded cells by a pressurized, automated OctaFlow perfusion system (ALA Scientific Instruments).
Each voltage protocol was first run three times in extracellular solution, the 3rd serving as the baseline. Voltage protocols were repeated in the presence of cumulatively rising concentrations of test compound; each concentration was present for 30 s before the recording started. The signals were sampled at 5 kHz after low-pass filtering at 2 kHz.
For Gmax (rel.), N was set to –1. For ΔV50, N was set to 1.

[3] = target: T2, hERG S649A (Homo sapiens, UniProt Q12809, S649A); assay: Manual patch-clamp (MPC) on hERG S649A, transiently transfected CHO-K1 cells; format: cell-based
T2 construct: expressed in transfected cells; host or cells: CHO-K1 CCL-61 (ATCC), transient, co-transfected with pcDNA3-GFP
T2 sequence (Q12809 whole entry S649A): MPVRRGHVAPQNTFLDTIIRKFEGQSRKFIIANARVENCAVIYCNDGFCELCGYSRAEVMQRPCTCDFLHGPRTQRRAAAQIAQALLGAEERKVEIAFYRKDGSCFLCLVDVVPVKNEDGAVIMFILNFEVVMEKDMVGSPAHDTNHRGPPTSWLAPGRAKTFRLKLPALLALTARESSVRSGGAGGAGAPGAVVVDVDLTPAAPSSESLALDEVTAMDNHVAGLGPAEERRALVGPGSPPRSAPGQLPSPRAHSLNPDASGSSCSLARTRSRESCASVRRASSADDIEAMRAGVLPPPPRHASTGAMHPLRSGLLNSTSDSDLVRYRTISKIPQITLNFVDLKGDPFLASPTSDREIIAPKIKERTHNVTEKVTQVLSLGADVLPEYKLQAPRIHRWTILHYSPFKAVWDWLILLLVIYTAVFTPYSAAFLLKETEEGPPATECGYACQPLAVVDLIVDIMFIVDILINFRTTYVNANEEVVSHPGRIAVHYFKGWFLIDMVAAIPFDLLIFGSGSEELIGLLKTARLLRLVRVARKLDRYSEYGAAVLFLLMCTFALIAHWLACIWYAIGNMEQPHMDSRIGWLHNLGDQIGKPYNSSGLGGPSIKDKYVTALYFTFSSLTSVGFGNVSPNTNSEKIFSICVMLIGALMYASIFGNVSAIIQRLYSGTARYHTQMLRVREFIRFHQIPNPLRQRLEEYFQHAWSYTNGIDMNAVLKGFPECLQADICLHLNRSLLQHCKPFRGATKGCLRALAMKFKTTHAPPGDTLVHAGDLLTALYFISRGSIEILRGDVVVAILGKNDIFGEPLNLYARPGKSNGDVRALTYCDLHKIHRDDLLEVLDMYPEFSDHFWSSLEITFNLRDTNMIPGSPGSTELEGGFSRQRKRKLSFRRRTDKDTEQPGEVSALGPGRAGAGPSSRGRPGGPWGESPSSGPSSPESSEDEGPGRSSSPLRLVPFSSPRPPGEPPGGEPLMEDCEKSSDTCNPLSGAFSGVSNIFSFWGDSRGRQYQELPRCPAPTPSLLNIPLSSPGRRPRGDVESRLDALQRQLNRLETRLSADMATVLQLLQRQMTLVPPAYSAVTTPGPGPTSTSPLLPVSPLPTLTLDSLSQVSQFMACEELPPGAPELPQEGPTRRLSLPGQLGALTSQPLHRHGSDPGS
Source text: The hERG wild-type and Y652A constructs were kindly provided by Dr. Nicole Schmitt, and the eGFP-pcDNA3 construct was kindly provided by Dr. Antonios Pantazis. The S624A and S649A constructs were generated in-house from the wild-type template using the QuikChange II XL Site-Directed Mutagenesis Kit (Agilent Technologies, Santa Clara, CA, USA), in accordance with the manufacturer’s instructions. Mutagenesis primers were designed using the Agilent QuikChange Primer Design Program. Briefly, PCR amplification was performed according to the recommended cycling conditions, followed by DpnI digestion for 1 h to selectively degrade the parental (methylated) DNA template. The reaction products were then transformed into XL10-Gold ultracompetent cells. All constructs were verified by whole-plasmid sequencing (Eurofins Genomics, Germany) to confirm sequence accuracy.
Manual patch-clamp (MPC) recordings were performed 24–48 h post-transfection. Patch pipettes were pulled from borosilicate glass and had resistances of 4–7 MΩ when filled with intracellular solution. Coverslips with CHO-K1 cells were placed in a recording chamber and continuously perfused at room temperature (22–24 °C) with extracellular solution using a gravity-fed perfusion system. […] Compounds were applied to the recorded cells by a pressurized, automated OctaFlow perfusion system (ALA Scientific Instruments). […]

[4] = Literature concentrations detected in post-mortem cases; details: conversion of cited ng/mL value
[5] = target: KV7.1/KCNE1 (Homo sapiens, UniProt P51787); assay: Automated patch-clamp (APC, population patch), CHO cells stably expressing human KV7.1/KCNE1; format: cell-based
Chain of KV7.1/KCNE1 (P51787 whole entry): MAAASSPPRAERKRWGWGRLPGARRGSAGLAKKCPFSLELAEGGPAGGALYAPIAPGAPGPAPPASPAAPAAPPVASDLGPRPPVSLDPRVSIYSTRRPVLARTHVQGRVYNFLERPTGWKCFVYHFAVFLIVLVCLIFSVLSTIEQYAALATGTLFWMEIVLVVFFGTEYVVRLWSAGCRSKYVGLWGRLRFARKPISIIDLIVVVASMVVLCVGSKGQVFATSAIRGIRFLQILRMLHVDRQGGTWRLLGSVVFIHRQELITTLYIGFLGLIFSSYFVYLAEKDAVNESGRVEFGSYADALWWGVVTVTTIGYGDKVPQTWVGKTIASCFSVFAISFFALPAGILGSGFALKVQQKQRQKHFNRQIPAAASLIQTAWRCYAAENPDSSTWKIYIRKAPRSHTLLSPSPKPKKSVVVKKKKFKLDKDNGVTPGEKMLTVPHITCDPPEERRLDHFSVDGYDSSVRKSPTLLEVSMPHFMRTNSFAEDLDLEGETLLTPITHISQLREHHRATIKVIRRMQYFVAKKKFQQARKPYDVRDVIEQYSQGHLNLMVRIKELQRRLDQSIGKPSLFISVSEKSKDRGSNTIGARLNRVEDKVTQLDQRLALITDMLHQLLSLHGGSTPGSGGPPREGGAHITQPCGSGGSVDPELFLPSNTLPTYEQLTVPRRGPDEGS

[6] = target: T3, human CB1 receptor (Homo sapiens, UniProt P21554); assay: AequoScreen intracellular calcium release assay, CHO-K1 cells stably expressing CB1; format: cell-based; details: n ≥ 3 (JWH-030 n = 2)
T3 construct: host or cells: CHO-K1 stably expressing CB1, apoaequorin and Gα16
T3 sequence (P21554 whole entry): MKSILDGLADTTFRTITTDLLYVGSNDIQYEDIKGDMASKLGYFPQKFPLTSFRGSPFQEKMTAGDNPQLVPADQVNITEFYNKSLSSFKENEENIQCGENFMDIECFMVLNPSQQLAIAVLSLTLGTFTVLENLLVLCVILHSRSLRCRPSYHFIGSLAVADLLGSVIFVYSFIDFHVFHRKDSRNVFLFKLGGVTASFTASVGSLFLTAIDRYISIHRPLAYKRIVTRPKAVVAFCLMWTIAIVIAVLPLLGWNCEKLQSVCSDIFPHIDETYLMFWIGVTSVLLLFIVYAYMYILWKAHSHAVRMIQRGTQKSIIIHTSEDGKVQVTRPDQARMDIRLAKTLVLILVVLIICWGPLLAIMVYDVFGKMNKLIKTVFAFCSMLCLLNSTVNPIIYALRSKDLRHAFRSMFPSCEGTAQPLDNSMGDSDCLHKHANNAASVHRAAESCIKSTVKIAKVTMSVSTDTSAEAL

T1 sequence (Q12809 whole entry): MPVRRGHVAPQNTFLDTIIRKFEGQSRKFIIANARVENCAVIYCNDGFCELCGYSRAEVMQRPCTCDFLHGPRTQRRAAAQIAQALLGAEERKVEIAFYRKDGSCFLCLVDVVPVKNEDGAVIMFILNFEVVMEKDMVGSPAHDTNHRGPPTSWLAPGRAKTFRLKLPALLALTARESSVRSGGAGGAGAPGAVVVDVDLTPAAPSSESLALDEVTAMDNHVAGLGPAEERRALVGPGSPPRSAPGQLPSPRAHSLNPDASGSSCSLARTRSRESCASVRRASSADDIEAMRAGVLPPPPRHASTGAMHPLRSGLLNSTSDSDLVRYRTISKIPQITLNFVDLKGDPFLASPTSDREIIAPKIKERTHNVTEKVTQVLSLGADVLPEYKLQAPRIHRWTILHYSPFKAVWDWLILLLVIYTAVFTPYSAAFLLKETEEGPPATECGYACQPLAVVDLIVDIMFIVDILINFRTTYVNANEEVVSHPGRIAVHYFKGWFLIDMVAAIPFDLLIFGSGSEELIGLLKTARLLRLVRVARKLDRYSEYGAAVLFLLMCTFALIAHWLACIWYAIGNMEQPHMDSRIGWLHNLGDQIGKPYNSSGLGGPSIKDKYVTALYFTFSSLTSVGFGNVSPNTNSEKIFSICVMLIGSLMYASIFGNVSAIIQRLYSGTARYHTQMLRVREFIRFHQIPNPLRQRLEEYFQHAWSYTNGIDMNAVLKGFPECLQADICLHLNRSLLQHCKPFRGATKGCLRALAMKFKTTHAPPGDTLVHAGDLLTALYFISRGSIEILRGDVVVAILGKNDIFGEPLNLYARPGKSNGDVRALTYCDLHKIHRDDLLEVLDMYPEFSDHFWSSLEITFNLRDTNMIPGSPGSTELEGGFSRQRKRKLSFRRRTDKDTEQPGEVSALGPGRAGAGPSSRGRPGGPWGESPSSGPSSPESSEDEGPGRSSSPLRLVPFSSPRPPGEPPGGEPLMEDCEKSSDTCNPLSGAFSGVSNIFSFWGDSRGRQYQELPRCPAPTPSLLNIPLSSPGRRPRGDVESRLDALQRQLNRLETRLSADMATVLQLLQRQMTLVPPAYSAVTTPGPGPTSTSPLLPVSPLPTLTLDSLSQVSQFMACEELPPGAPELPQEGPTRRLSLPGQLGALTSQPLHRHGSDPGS

COC(=O)C(NC(=O)c1nn(CCCCCF)c2ccccc12)C(C)(C)C (stereo not drawn) [5F-MDMB-PINACA, methyl 2-{[1-(5-fluoropentyl)-1H-indazole-3-carbonyl]amino}-3,3-dimethylbutanoate]
concentration in post-mortem cases, blood or serum ([1]; blood or serum samples): approximately 2 ng/mL
concentration in post-mortem case, heart muscle ([1]; heart muscle): 1.82 ng/mL
IC50 [2]: 4 µM
IC50 [3]: 16.7 µM
concentration in post-mortem cases, blood or serum (converted) ([4]; blood or serum samples): ≈ 5.3 nM
concentration in post-mortem case, heart muscle (converted) ([4]; heart muscle): ≈ 4.8 nM
IC50 [5]: 71.4 µM
Gmax effect on hERG versus KV7.1/KCNE1 (in words) ([5]; 10 µM, both channels by APC): effects only on hERG
effect on KV7.1/KCNE1 (in words) ([5]; APC): small effect on KV7.1/KCNE1
KV7.1/KCNE1 channel Efficacy (max reduction in Gmax) Gmin ([5]; best fit, 1 = no reduction of Gmax, 0 = complete reduction): 0
EC50 ([6]; CB1 receptor Potency EC50, normalized to median EC50 of JWH-018): 0.00899 µM
CB1 receptor Efficacy Emax ([6]; normalized to maximum of JWH-018): 131 % JWH-018
